Common to all, as to type: cell-based
The test system of assay [1] is RPEMYC^H2B-GFP cells. Put plainly: Mechanism-informed phenotypic screening assay (mitotic arrest, polyploidy; GE IN-Cell Analyzer 2000). The following applies: 20 nM to 20 μM, 24, 48 or 72 hours, read-out: Min. Effective conc. for polyploidy (≥5%). The procedure, abridged:
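RPEMYC^H2B-GFP cells expressing Histone 2B-EGFP were treated with compounds at 20 nM to 20 μM. Mitotic arrest and DNA content were imaged at 24, 48 or 72 h. Minimal effective concentrations eliciting polyploidy are given as letter bins.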

For assay [2], the system named is breast cancer cell line MDA-MB-231. The assay is described as follows: MTT assay of cellular proliferation, MDA-MB-231. The following applies: Homo sapiens, read-out: EC50: Concentration that inhibits 50% of proliferation. The protocol:
(§1) Six lung cancer cell lines (NCI-H23, NCI-H460, NCI-H596, NCI-H2170, Calu-6 and A549), two colon cancer cell lines (HCT116 and SW460), one breast cancer cell line MDA-MB-231, one gastric cancer cell line NCI-N87, one prostate cancer cell line DU145, one cervical cancer cell line Hela, and one glioblastoma cell line T98G were obtained from ATCC. The T2 HCC cell line was derived from a mouse liver cancer model initiated by a transgene of MYC (Reference). All cell lines were cultured in DMEM (Gibco, Cleveland, TN, USA) supplemented with 5% fetal bovine serum (Gibco), penicillin (100 U/mL)-streptomycin (100 μg/mL) (Gibco, Cat. No. 15140-122), 2 mM L-glutamine (Gibco, 200 mM solution, Cat. No. 25030081), and 1 mM sodium pyruvate (Gibco, 100 mM solution, Cat. No. 11360070) at 37° C. in a humidified incubator that was maintained at 5% CO2.
(§2) The MTT assay measures cellular metabolic activity as a proxy for cell viability and involves the conversion of the water-soluble yellow dye MTT [3-(4,5-dimethylthiazol-2-yl)-2,5-diphenyltetrazolium bromide] into an insoluble purple formazan by the action of mitochondrial reductase. Formazan is then solubilized and its concentration is determined by measuring the optical density (OD) value at a wavelength of 570 nm. The value is in proportional to the number of live cells with excellent linearity up to ˜10^6 cells per well. The MTT assay was used to determine the EC50 value, the concentration of a compound that leads to 50% inhibition of cellular proliferation. Briefly, cells were split when growing to the mid-Log phase. Cells in 100 μL of culture medium were seeded into each well of 96-well microplates and cultivated for 15˜24 hours to reach a confluence of 20˜30% and were then exposed to drugs at concentrations ranging from 1 nM to 10 μM. At the endpoint, 20 μL of a MTT stock solution in DMSO (5 mg/mL) was added to each well that contains […] of DMEM. The microplates were left in the cell culture incubator for 3˜4 h before subjected to solubilization and determination of formazan at A570 in a microplate reader (BioTek ELX808iu). […] Therefore, these compounds might hold a broad utility in the treatment of a large variety of human malignancies.
(Formazan colour is commonly taken as a measure of viable cells.)

Assay [3] has as its system gastric cancer cell line NCI-N87. Put plainly: Minimal effective concentration that elicits polyploidy, NCI-N87. Conditions: Homo sapiens, read-out: MECP: Minimal effective concentration that elicits polyploidy.
Assay [4] deals with colon cancer cell line HCT116. Put plainly: MTT assay of cellular proliferation, HCT116. Conditions: Homo sapiens, HCT-116, read-out: EC50: Concentration that inhibits 50% of proliferation. The protocol: as §1, §2
Assay [5] deals with lung cancer cell line NCI-H23. The assay is described as follows: Minimal effective concentration that elicits polyploidy, NCI-H23. The following applies: Homo sapiens, read-out: MECP: Minimal effective concentration that elicits polyploidy.
Assay [6] concerns liver cancer cell line T2 HCC. The assay is described as follows: MTT assay of cellular proliferation, T2 HCC. The following applies: Mus musculus, read-out: EC50: Concentration that inhibits 50% of proliferation. The protocol:
as §1, §2

For assay [7], the system named is cervical cancer cell line Hela. Put plainly: MTT assay of cellular proliferation, Hela. The following applies: Homo sapiens, read-out: EC50: Concentration that inhibits 50% of proliferation. The protocol:
as §1, §2

Assay [8] deals with gastric cancer cell line NCI-N87. The assay is described as follows: MTT assay of cellular proliferation, NCI-N87. The following applies: Homo sapiens, read-out: EC50: Concentration that inhibits 50% of proliferation. Here is the method: as §1, §2
For assay [9], the system named is lung cancer cell line A549. Put plainly: Minimal effective concentration that elicits polyploidy, A549. The following applies: Homo sapiens, read-out: MECP: Minimal effective concentration that elicits polyploidy.
Assay [10] deals with liver cancer cell line T2 HCC. Put plainly: Minimal effective concentration that elicits polyploidy, T2 HCC. Conditions: Mus musculus, read-out: MECP: Minimal effective concentration that elicits polyploidy.
Assay [11] has as its system breast cancer cell line MDA-MB-231. Put plainly: Minimal effective concentration that elicits polyploidy, MDA-MB-231. The following applies: Homo sapiens, read-out: MECP: Minimal effective concentration that elicits polyploidy.
Assay [12] has as its system RPEMYC^H2B-GFP cells. Put plainly: Mechanism-informed phenotypic screening assay (mitotic arrest, polyploidy; GE IN-Cell Analyzer 2000). The following applies: 20 nM to 20 μM, 24, 48 or 72 hours, read-out: Mitotic Arrest (≥5%).
Assay [13] deals with colon cancer cell line HCT116. The assay is described as follows: Minimal effective concentration that elicits polyploidy, HCT116. The following applies: Homo sapiens, HCT-116, read-out: MECP: Minimal effective concentration that elicits polyploidy.
Assay [14] deals with SW480. The assay is described as follows: Minimal effective concentration that elicits polyploidy, SW480. Conditions: Homo sapiens, read-out: MECP: Minimal effective concentration that elicits polyploidy.
Assay [15] deals with colon cancer cell line SW460. Put plainly: MTT assay of cellular proliferation, SW460. The following applies: Homo sapiens, SW480; read-out: EC50: Concentration that inhibits 50% of proliferation. Here is the method: as §1, §2
The subject of assay [16] is lung cancer cell line A549. The assay is described as follows: MTT assay of cellular proliferation, A549. The following applies: Homo sapiens, read-out: EC50: Concentration that inhibits 50% of proliferation. The protocol: as §1, §2
In assay [17] the test system is cervical cancer cell line Hela. Put plainly: Minimal effective concentration that elicits polyploidy, Hela. The following applies: Homo sapiens, read-out: MECP: Minimal effective concentration that elicits polyploidy.
Assay [18] deals with lung cancer cell line NCI-H23. Put plainly: MTT assay of cellular proliferation, NCI-H23. The following applies: Homo sapiens, read-out: EC50: Concentration that inhibits 50% of proliferation. Here is the method: as §1, §2

Where two headings read alike, the source gives them in different places.

Turning to `CNC(=O)c1cc(Oc2ncccc2-c2ccnc(C)c2)cc(C(F)(F)F)c1` [Compound 37, N-methyl-3-((2′-methyl-[3,4′-bipyridin]-2-yl)oxy)-5-(trifluoromethyl)benzamide], the minimal effective concentration in assay [1] is 1 µM; in assay [3], 0.001 to 1 µM; in [5] it was 0.001 to 1 µM; in [9], 0.001 to 1 µM; in [10], 0.001 to 1 µM; in assay [11], 0.001 to 1 µM. For the same molecule, the minimal effective concentration was 1 µM in assay [12], 0.001 to 1 µM in assay [13], 0.001 to 1 µM in [14] and 0.001 to 1 µM in [17]. The EC50 in assay [2], in assay [4], in assay [6], in assay [7], in [8] and in assay [15] was 1 to 1000 nM each time. In addition, the EC50 in [16] and in assay [18] was 1 to 1000 nM in each case.
Consider `COc1cc(NC(C)=O)cc(Oc2ncccc2-c2ccnc(Cl)c2)c1` [Compound 46, N-(3-((2′-chloro-[3,4′-bipyridin]-2-yl)oxy)-5-methoxyphenyl)acetamide], for which the minimal effective concentration was 1 µM in [1]; 0.001 to 1 µM in assay [3]; 0.001 to 1 µM in [5]; 0.001 to 1 µM in [9]; 0.001 to 1 µM in assay [10]; 0.001 to 1 µM in assay [11]. For the same molecule, the minimal effective concentration was 1 µM in [12], 0.001 to 1 µM in assay [13], 0.001 to 1 µM in assay [14] and 0.001 to 1 µM in [17]. Further, the EC50 in assay [2], in [4], in [6], in assay [7], in assay [8] and in assay [15] was 1 to 1000 nM throughout. In addition, the EC50 in assay [16] and in [18] was 1 to 1000 nM in each case.
With `COc1cc(NC(C)=O)cc(Oc2ncccc2-c2ccncc2)c1` [Compound 13, N-(3-([3,4′-bipyridin]-2-yloxy)-5-methoxyphenyl)acetamide], the minimal effective concentration in assay [1] is 1 µM; in assay [3] it was 0.001 to 1 µM; in assay [5], 0.001 to 1 µM; in assay [9], 0.001 to 1 µM; in assay [10], 0.001 to 1 µM; in [11] it was 0.001 to 1 µM. In addition, the minimal effective concentration in assay [12] is 1 µM; in assay [13], 0.001 to 1 µM; in assay [14], 0.001 to 1 µM; in assay [17], 0.001 to 1 µM. Also, the EC50 in assay [2], in [4], in [6], in assay [7], in [8] and in assay [15] was 1 to 1000 nM each time. Moreover, the EC50 in [16] and in assay [18] was 1 to 1000 nM each time.
Regarding `CNC(=O)c1cc(Oc2ncccc2-c2ccncc2)cc(C(F)(F)F)c1` [Compound 8, 3-([3,4′-bipyridin]-2-yloxy)-N-methyl-5-(trifluoromethyl)benzamide], the minimal effective concentration is 1 µM in assay [1]; 0.001 to 1 µM in assay [3]; 0.001 to 1 µM in assay [5]; 0.001 to 1 µM in assay [9]; 0.001 to 1 µM in [10]; 0.001 to 1 µM in [11]. The minimal effective concentration in assay [12] was 1 µM; in assay [13] it was 0.001 to 1 µM; in [14], 0.001 to 1 µM; in [17], 0.001 to 1 µM. Further, the EC50 in assay [2], in [4], in assay [6], in assay [7], in assay [8] and in assay [15] was 1 to 1000 nM each time. For the same molecule, the EC50 in assay [16] and in assay [18] was 1 to 1000 nM throughout.
`CNC(=O)c1cc(OC)cc(Oc2ncccc2-c2ccnc(OC)c2)c1` [Compound 27, 3-methoxy-5-((2′-methoxy-[3,4′-bipyridin]-2-yl)oxy)-N-methylbenzamide]: the minimal effective concentration in [1] was 1 µM; in assay [3], 0.001 to 1 µM; in assay [5], 0.001 to 1 µM; in assay [9] it was 0.001 to 1 µM; in assay [10] it was 0.001 to 1 µM; in assay [11], 0.001 to 1 µM. Also, the minimal effective concentration in assay [12] is 1 µM; in [13], 0.001 to 1 µM; in [14], 0.001 to 1 µM; in [17], 0.001 to 1 µM. Further, the EC50 in assay [2], in assay [4], in assay [6], in [7], in assay [8] and in assay [15] was 1 to 1000 nM in each case. Also, the EC50 in assay [16] and in assay [18] was 1 to 1000 nM each time.
As for `COc1cc(OC)cc(Oc2ncccc2-c2cc(C)ncn2)c1` [Compound 63, 4-(2-(3,5-dimethoxyphenoxy)pyridin-3-yl)-6-methylpyrimidine], the minimal effective concentration was 1 µM in assay [1]; 0.001 to 1 µM in assay [3]; 0.001 to 1 µM in assay [5]; 0.001 to 1 µM in assay [9]; 0.001 to 1 µM in assay [10]; 0.001 to 1 µM in assay [11]. Besides, the minimal effective concentration was 1 µM in assay [12], 0.001 to 1 µM in [13], 0.001 to 1 µM in assay [14] and 0.001 to 1 µM in [17]. The EC50 in [2], in [4], in assay [6], in [7], in assay [8] and in assay [15] was 1 to 1000 nM each time. In addition, the EC50 in assay [16] and in [18] was 1 to 1000 nM in each case.
